Legend:
Format in all cases: biochemical
[1] = molecular target: T1, HDAC8 (Homo sapiens, UniProt Q9BY41); assay: Caliper microfluidic endpoint IC50 assay
T1 construct: purchased Cayman Chemicals
T1 sequence (Q9BY41 1-377): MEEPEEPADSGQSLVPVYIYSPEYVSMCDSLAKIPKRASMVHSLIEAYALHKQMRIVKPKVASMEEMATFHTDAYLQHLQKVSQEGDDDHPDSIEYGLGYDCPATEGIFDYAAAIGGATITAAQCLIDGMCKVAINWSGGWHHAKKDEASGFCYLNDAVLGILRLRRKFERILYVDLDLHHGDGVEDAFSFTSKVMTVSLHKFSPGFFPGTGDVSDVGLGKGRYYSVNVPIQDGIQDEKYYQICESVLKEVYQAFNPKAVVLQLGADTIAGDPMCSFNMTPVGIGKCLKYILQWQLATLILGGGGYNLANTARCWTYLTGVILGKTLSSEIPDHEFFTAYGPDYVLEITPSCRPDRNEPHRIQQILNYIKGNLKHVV
Protocol: (§1) HP-1 and HP-2 IC50 values for HDAC1 were determined using the Trypsin-coupled assay as well as the Caliper endpoint assay. HP-1 and HP-2 IC50 values for HDAC2, HDAC3, HDAC6 and HDAC8 were determined with the Caliper endpoint assay.
(§2) The Caliper microfluidic assay was performed at the Broad Institute exactly as previously described.^5
(§3) IC50 measurements. HP-1 and HP-2 IC50 values for HDAC1 were determined using the Trypsin-coupled assay as well as the Caliper endpoint assay. HP-1 and HP-2 IC50 values for HDAC2, HDAC3, HDAC6 and HDAC8 were determined with the Caliper endpoint assay (full experimental details in Example 1).

[2] = molecular target: T2, HDAC6 (Homo sapiens, UniProt Q9UBN7); assay: Caliper microfluidic endpoint IC50 assay
T2 sequence (Q9UBN7 1-1215): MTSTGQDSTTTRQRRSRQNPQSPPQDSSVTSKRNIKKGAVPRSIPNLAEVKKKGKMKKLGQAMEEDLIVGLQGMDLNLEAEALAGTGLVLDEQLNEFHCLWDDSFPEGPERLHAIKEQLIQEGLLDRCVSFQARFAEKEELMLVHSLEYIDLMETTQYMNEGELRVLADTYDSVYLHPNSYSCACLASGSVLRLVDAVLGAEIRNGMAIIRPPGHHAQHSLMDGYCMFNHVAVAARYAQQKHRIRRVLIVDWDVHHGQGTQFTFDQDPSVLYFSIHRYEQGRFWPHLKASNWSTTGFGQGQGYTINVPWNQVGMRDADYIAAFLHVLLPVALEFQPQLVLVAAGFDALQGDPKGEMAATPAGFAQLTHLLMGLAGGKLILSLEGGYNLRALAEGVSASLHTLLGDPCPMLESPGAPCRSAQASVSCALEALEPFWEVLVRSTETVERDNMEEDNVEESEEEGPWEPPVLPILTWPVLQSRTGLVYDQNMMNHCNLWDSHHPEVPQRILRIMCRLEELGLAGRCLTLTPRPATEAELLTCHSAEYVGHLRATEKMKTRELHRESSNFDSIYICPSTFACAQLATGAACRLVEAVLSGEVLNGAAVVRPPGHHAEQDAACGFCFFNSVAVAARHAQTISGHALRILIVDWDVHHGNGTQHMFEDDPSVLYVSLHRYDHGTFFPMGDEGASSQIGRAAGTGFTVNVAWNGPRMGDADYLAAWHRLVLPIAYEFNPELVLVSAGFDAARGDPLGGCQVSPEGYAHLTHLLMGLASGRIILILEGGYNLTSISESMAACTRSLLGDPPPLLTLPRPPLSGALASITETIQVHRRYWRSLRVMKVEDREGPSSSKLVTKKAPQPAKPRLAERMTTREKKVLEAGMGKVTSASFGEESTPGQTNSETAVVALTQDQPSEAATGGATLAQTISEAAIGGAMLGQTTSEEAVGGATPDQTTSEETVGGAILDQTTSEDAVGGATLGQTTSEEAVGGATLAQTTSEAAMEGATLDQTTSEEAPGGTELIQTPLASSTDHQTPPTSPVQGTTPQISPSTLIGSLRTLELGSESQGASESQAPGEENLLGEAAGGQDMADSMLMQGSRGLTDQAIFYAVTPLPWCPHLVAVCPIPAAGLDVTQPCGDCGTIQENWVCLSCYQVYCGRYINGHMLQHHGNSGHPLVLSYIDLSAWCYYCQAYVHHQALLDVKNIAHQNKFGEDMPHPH
Protocol: as §1, §2, §3

[3] = molecular target: HDAC2 (Homo sapiens, UniProt Q92769); assay: Caliper microfluidic endpoint IC50 assay
Sequence of HDAC2 (Q92769 whole entry, species assumed): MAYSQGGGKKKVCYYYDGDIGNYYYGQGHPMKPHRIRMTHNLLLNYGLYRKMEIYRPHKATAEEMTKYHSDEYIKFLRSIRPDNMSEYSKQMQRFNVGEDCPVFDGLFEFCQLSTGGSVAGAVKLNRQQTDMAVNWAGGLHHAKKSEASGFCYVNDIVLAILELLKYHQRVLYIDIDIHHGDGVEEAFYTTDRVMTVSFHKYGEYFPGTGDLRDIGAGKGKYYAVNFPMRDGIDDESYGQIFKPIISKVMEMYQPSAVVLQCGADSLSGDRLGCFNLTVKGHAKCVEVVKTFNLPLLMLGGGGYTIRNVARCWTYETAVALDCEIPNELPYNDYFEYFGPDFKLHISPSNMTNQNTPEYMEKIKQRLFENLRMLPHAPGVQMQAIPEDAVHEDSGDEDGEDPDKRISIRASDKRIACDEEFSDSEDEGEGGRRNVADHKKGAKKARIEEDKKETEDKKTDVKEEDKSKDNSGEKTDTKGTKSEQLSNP
Protocol: as §1, §2, §3

[4] = molecular target: T1, HDAC8; assay: LCMS characterization of enzymatic deacetylation by HDAC8; details: 5 μM probe, 12 hours at 37° C.
Protocol: The enzymatic cleavage of HP-1 and HP-2 was analyzed by performing LCMS assays with HeLa nuclear extract (AnaSpec), HeLa whole cell lysate (Santa Cruz Inc.), and the following purified HDAC isoforms: 1, 2, 3, 6 and 8 (HDAC1, 3 and 8 from Cayman Chemicals and HDAC2 and 6 provided by Dr. Stephen Haggarty). Solutions containing (i) vehicle with DMSO in HDAC buffer, (ii) 5 μM probe in HDAC buffer, (iii) 5 μM probe and HDAC enzyme/HeLa nuclear extract/HeLa whole cell lysate in HDAC buffer, or (iv) 5 μM probe and HDAC enzyme/HeLa nuclear extract/HeLa whole cell lysate pre-incubated with 10 μM SAHA (Provided by Dr. Stephen Haggarty) in HDAC buffer were incubated for 12 hours at 37° C. Following incubation, a 20 μL aliquot of supernatant from each sample was analyzed by LCMS. […] For HP-1, the (M+H)^+ ion for the corresponding aldehyde (8, DHP-1) was detected, which formed following reaction of the initial imine deacetylation product with water. […] The peak area for each detected compound was measured to determine the % deacetylation of each probe. All assay samples were analyzed in triplicate. […]
LCMS characterization of HDAC enzymatic action on HP-1 and HP-2. […] Following incubation, an aliquot of supernatant from each sample was analyzed by LCMS. […] The peak area for each detected compound was measured to determine the % deacetylation of each probe (full experimental details in Example 1).

In the case of `CC(=O)NC=CCCCCNC(=O)CCCCCNc1ccc([N+](=O)[O-])c2nonc12` [HP-1], the IC50 [1] is reported as over 70 µM, the IC50 ([2]; HDAC6, Caliper endpoint assay) is reported as 12 µM and the “binding to HDAC6 (in words)” value ([2]; competitive inhibition with a peptide substrate) is reported as “bind”. For the same compound, the IC50 [3] was over 70 µM, the “% HP-1 to DHP-1” value ([4]; HDAC8, +SAHA (10 μM)) was 0% and the “% HP-1 to DHP-1” value ([4]; HDAC8, −SAHA) was 0%.
